{
  "source": "patent US9920010B2",
  "about": "“CXCR7 receptor modulators” (IDORSIA PHARMACEUTICALS LTD, priority 2013, dated 2018)",
  "data": [
    {"target": "T1, CXCR7 (Homo sapiens, UniProt P25106)", "T1 construct": "host or cells: CHO-K1 (PathHunter CHO-K1 CXCR7 b-arrestin cell line, stably transfected)", "T1 sequence (P25106 whole entry, the tested form may be a part)": "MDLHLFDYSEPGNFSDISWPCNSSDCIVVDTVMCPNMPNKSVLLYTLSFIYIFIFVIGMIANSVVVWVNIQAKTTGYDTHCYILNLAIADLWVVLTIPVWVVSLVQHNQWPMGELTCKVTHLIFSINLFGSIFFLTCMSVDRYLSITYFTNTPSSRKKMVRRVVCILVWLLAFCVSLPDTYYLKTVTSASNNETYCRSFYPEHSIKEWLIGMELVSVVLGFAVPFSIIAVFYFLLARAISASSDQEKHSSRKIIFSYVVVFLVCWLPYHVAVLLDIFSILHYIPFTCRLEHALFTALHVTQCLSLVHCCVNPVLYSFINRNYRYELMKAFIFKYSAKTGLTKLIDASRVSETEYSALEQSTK", "T1 sequence (P32121 whole entry partner, the tested form may be a part)": "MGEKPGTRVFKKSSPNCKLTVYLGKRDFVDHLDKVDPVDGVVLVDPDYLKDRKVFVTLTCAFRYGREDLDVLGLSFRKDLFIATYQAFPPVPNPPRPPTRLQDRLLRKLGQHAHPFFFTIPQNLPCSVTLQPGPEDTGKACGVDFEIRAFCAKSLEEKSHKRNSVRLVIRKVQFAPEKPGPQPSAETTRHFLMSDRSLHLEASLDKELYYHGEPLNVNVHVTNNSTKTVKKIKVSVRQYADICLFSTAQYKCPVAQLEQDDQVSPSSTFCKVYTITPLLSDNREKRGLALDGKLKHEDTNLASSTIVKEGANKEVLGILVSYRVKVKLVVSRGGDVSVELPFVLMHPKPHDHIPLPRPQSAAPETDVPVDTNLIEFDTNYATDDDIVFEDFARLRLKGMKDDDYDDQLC", "assay": "PathHunter CHO-K1 CXCR7 b-arrestin recruitment assay (CXCR7 agonistic activity)", "format": "cell-based", "details": "PathHunter CHO-K1 CXCR7 b-arrestin cell line", "how_it_was_run": "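Stable CHO-K1 line with C-terminally ProLink-tagged CXCR7 and β-arrestin 2–EA fusion; β-arrestin recruitment restores β-gal activity, read by chemiluminescence after 1 h RT detection. Cells seeded 24 h, starved in OPTIMEM 3–4 h, exposed to compounds 90 min at 37 °C in HBSS/HEPES/BSA. Geometric-mean EC50 from repeated measurements.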", "units": {"EC50": "µM"}, "values": [
      {"smiles": "CCN1CCc2c(cccc2NCC(=O)N(Cc2ccccc2C(F)(F)F)C2CCN(C)CC2)C1", "note": "[compound 137, 2-(2-Ethyl-1,2,3,4-tetrahydro-isoquinolin-5-ylamino)-N-(1-methyl-piperidin-4-yl)-N-(2-trifluoromethyl-benzyl)-acetamide]", "EC50": 0.045},
      {"smiles": "CCN(Cc1ccccc1Cl)C(=O)/C=C/c1cccc2c1CCN(CC1CC1)C2", "note": "[compound 139]", "EC50": 0.055},
      {"smiles": "Cc1cccc(CN(C(=O)/C=C/c2cccc3c2CCN(CC2CC2)C3)C2CC2)c1C", "note": "[compound 141]", "EC50": 0.098},
      {"smiles": "CN(C)CCN(Cc1ccccc1)C(=O)/C=C/c1cccc2c1CCN(C)C2", "note": "[compound 142, (E)-N-Benzyl-N-(2-dimethylamino-ethyl)-3-(2-methyl-1,2,3,4-tetrahydro-isoquinolin-5-yl)-acrylamide]", "EC50": 0.023},
      {"smiles": "CN(C)CCN(Cc1ccccc1)C(=O)/C=C/c1cccc2c1CCN(CC1CC1)C2", "note": "[compound 143, (E)-N-Benzyl-3-(2-cyclopropylmethyl-1,2,3,4-tetrahydro-isoquinolin-5-yl)-N-(2-dimethylamino-ethyl)-acrylamide]", "EC50": 0.003},
      {"smiles": "CCOC(=O)CN(Cc1ccccc1)C(=O)/C=C/c1cccc2c1CCN(CC1CC1)C2", "note": "[compound 144, {Benzyl-[(E)-3-(2-cyclopropylmethyl-1,2,3,4-tetrahydro-isoquinolin-5-yl)-acryloyl]-amino}-acetic acid ethyl ester]", "EC50": 0.022},
      {"smiles": "CCN1CCc2c(/C=C/C(=O)N(CCN(C)C)Cc3ccccc3Cl)cccc2C1", "note": "[compound 145, (E)-N-(2-Chloro-benzyl)-N-(2-dimethylamino-ethyl)-3-(2-ethyl-1,2,3,4-tetrahydro-isoquinolin-5-yl)-acrylamide]", "EC50": 0.008},
      {"smiles": "CN(C)CCN(Cc1ccccc1Cl)C(=O)/C=C/c1cccc2c1CCN(CC1CC1)C2", "note": "[compound 146, (E)-N-(2-Chloro-benzyl)-3-(2-cyclopropylmethyl-1,2,3,4-tetrahydro-isoquinolin-5-yl)-N-(2-dimethylamino-ethyl)-acrylamide]", "EC50": 0.002},
      {"smiles": "O=C(/C=C/c1cccc2c1CCN(CC1CC1)C2)N(Cc1ccccc1)C1CCS(=O)(=O)C1", "note": "(stereo not shown) [compound 147]", "EC50": 0.016},
      {"smiles": "O=C(/C=C/c1cccc2c1CCN(CC1CC1)C2)N(CCc1ccc(F)cc1)Cc1ccccc1", "note": "[compound 148]", "EC50": 0.054},
      {"smiles": "CCN1CCc2c(/C=C/C(=O)N(CCN(C)C)Cc3ccccc3C(F)(F)F)cccc2C1", "note": "[compound 149, (E)-N-(2-Dimethylamino-ethyl)-3-(2-ethyl-1,2,3,4-tetrahydro-isoquinolin-5-yl)-N-(2-trifluoromethyl-benzyl)-acrylamide]", "EC50": 0.0006},
      {"smiles": "CN(C)CCN(Cc1ccccc1C(F)(F)F)C(=O)/C=C/c1cccc2c1CCN(CC1CC1)C2", "note": "[compound 150, (E)-3-(2-Cyclopropylmethyl-1,2,3,4-tetrahydro-isoquinolin-5-yl)-N-(2-dimethylamino-ethyl)-N-(2-trifluoromethyl-benzyl)-acrylamide]", "EC50": 0.001},
      {"smiles": "CCN1CCc2c(/C=C/C(=O)N(Cc3ccccc3C(F)(F)F)C3CCN(C)CC3)cccc2C1", "note": "[compound 151, (E)-3-(2-Ethyl-1,2,3,4-tetrahydro-isoquinolin-5-yl)-N-(1-methyl-piperidin-4-yl)-N-(2-trifluoromethyl-benzyl)-acrylamide]", "EC50": 0.034},
      {"smiles": "CN1CCC(N(Cc2ccccc2C(F)(F)F)C(=O)/C=C/c2cccc3c2CCN(CC2CC2)C3)CC1", "note": "[compound 152, (E)-3-(2-Cyclopropylmethyl-1,2,3,4-tetrahydro-isoquinolin-5-yl)-N-(1-methyl-piperidin-4-yl)-N-(2-trifluoromethyl-benzyl)-acrylamide]", "EC50": 0.008},
      {"smiles": "C/C(=C\\c1cccc2c1CCN(CC1CC1)C2)C(=O)N(CCN(C)C)Cc1ccccc1C(F)(F)F", "note": "[compound 154, (E)-3-(2-Cyclopropylmethyl-1,2,3,4-tetrahydro-isoquinolin-5-yl)-N-(2-dimethylamino-ethyl)-2-methyl-N-(2-trifluoromethyl-benzyl)-acrylamide]", "EC50": 0.029},
      {"smiles": "CCN1CCc2c(CCC(=O)N(CCN(C)C)Cc3ccccc3Cl)cccc2C1", "note": "[compound 155, N-(2-Chloro-benzyl)-N-(2-dimethylamino-ethyl)-3-(2-ethyl-1,2,3,4-tetrahydro-isoquinolin-5-yl)-propionamide]", "EC50": 0.017},
      {"smiles": "CN(C)CCN(Cc1ccccc1Cl)C(=O)CCc1cccc2c1CCN(CC1CC1)C2", "note": "[compound 156, N-(2-Chloro-benzyl)-3-(2-cyclopropylmethyl-1,2,3,4-tetrahydro-isoquinolin-5-yl)-N-(2-dimethylamino-ethyl)-propionamide]", "EC50": 0.001},
      {"smiles": "CCN1CCc2c(CCC(=O)N(CCN(C)C)Cc3ccccc3C(F)(F)F)cccc2C1", "note": "[compound 157, N-(2-Dimethylamino-ethyl)-3-(2-ethyl-1,2,3,4-tetrahydro-isoquinolin-5-yl)-N-(2-trifluoromethyl-benzyl)-propionamide]", "EC50": 0.009},
      {"smiles": "CN(C)CCN(Cc1ccccc1C(F)(F)F)C(=O)CCc1cccc2c1CCN(CC1CC1)C2", "note": "[compound 158, 3-(2-Cyclopropylmethyl-1,2,3,4-tetrahydro-isoquinolin-5-yl)-N-(2-dimethylamino-ethyl)-N-(2-trifluoromethyl-benzyl)-propionamide]", "EC50": 0.002},
      {"smiles": "CCN1CCc2c(CCC(=O)N(Cc3ccccc3C(F)(F)F)C3CCN(C)CC3)cccc2C1", "note": "[compound 159]", "EC50": 0.072},
      {"smiles": "CN1CCC(N(Cc2ccccc2C(F)(F)F)C(=O)CCc2cccc3c2CCN(CC2CC2)C3)CC1", "note": "[compound 160, 3-(2-Cyclopropylmethyl-1,2,3,4-tetrahydro-isoquinolin-5-yl)-N-(1-methyl-piperidin-4-yl)-N-(2-trifluoromethyl-benzyl)-propionamide]", "EC50": 0.015},
      {"smiles": "CN(C)CCN(Cc1ccccc1)C(=O)CCc1cccc2c1CCN(CC1CC1)C2", "note": "[compound 161, N-Benzyl-3-(2-cyclopropylmethyl-1,2,3,4-tetrahydro-isoquinolin-5-yl)-N-(2-dimethylamino-ethyl)-propionamide]", "EC50": 0.004},
      {"smiles": "CC(C)CCN(Cc1ccccc1)C(=O)COc1cccc2c1CCN(CC1CC1)C2", "note": "[compound 163, N-Benzyl-2-(2-cyclopropylmethyl-1,2,3,4-tetrahydro-isoquinolin-5-yloxy)-N-(3-methyl-butyl)-acetamide]", "EC50": 0.017},
      {"smiles": "CN(C)CCN(Cc1ccccc1)C(=O)COc1cccc2c1CCN(C)C2", "note": "[compound 164]", "EC50": 0.084},
      {"smiles": "CCN1CCc2c(cccc2OCC(=O)N(CCN(C)C)Cc2ccccc2)C1", "note": "[compound 165]", "EC50": 0.061},
      {"smiles": "CN(C)CCN(Cc1ccccc1)C(=O)COc1cccc2c1CCN(CC1CC1)C2", "note": "[compound 166, N-Benzyl-2-(2-cyclopropylmethyl-1,2,3,4-tetrahydro-isoquinolin-5-yloxy)-N-(2-dimethylamino-ethyl)-acetamide]", "EC50": 0.006},
      {"smiles": "CC(C)CN1CCc2c(cccc2OCC(=O)N(CCN(C)C)Cc2ccccc2)C1", "note": "[compound 168, N-Benzyl-N-(2-dimethylamino-ethyl)-2-(2-isobutyl-1,2,3,4-tetrahydro-isoquinolin-5-yloxy)-acetamide]", "EC50": 0.02},
      {"smiles": "CCC(=O)N1CCc2c(cccc2OCC(=O)N(CCN(C)C)Cc2ccccc2)C1", "note": "[compound 169, N-Benzyl-N-(2-dimethylamino-ethyl)-2-(2-propionyl-1,2,3,4-tetrahydro-isoquinolin-5-yloxy)-acetamide]", "EC50": 0.042},
      {"smiles": "CC(C)C(=O)N1CCc2c(cccc2OCC(=O)N(CCN(C)C)Cc2ccccc2)C1", "note": "[compound 170]", "EC50": 0.074},
      {"smiles": "CCN1CCc2c(cccc2OCC(=O)N(CCN(C)C)Cc2ccccc2Cl)C1", "note": "[compound 171, N-(2-Chloro-benzyl)-N-(2-dimethylamino-ethyl)-2-(2-ethyl-1,2,3,4-tetrahydro-isoquinolin-5-yloxy)-acetamide]", "EC50": 0.018},
      {"smiles": "CN(C)CCN(Cc1ccccc1Cl)C(=O)COc1cccc2c1CCN(CC1CC1)C2", "note": "[compound 172, N-(2-Chloro-benzyl)-2-(2-cyclopropylmethyl-1,2,3,4-tetrahydro-isoquinolin-5-yloxy)-N-(2-dimethylamino-ethyl)-acetamide]", "EC50": 0.002},
      {"smiles": "CCN1CCc2c(cccc2OCC(=O)N(CCN(C)C)Cc2ccccc2C(F)(F)F)C1", "note": "[compound 173, N-(2-Dimethylamino-ethyl)-2-(2-ethyl-1,2,3,4-tetrahydro-isoquinolin-5-yloxy)-N-(2-trifluoromethyl-benzyl)-acetamide]", "EC50": 0.005},
      {"smiles": "CN(C)CCN(Cc1ccccc1C(F)(F)F)C(=O)COc1cccc2c1CCN(CC1CC1)C2", "note": "[compound 174, 2-(2-Cyclopropylmethyl-1,2,3,4-tetrahydro-isoquinolin-5-yloxy)-N-(2-dimethylamino-ethyl)-N-(2-trifluoromethyl-benzyl)-acetamide]", "EC50": 0.0008},
      {"smiles": "CN(C)CCN(Cc1ccccc1)C(=O)CNc1cccc2c1CN(C)CC2", "note": "[compound 182]", "EC50": 0.069},
      {"smiles": "CC(C)CCN(Cc1ccccc1)C(=O)CNc1cccc2c1CN(C)CC2", "note": "[compound 183]", "EC50": 0.14},
      {"smiles": "CN(C)CCN(Cc1ccccc1)C(=O)CNc1cccc2c1C(=O)N(C)CC2", "note": "[compound 184]", "EC50": 0.27},
      {"smiles": "CC(C)N1CCc2cccc(NCC(=O)N(CCN(C)C)Cc3ccccc3)c2C1", "note": "[compound 186]", "EC50": 0.091},
      {"smiles": "CN(C)CCN(Cc1ccccc1)C(=O)CNc1cccc2c1CN(CC1CC1)CC2", "note": "[compound 187, N-Benzyl-2-(2-cyclopropylmethyl-1,2,3,4-tetrahydro-isoquinolin-8-ylamino)-N-(2-dimethylamino-ethyl)-acetamide]", "EC50": 0.034},
      {"smiles": "CC(C)CN1CCc2cccc(NCC(=O)N(CCN(C)C)Cc3ccccc3)c2C1", "note": "[compound 189, N-Benzyl-N-(2-dimethylamino-ethyl)-2-(2-isobutyl-1,2,3,4-tetrahydro-isoquinolin-8-ylamino)-acetamide]", "EC50": 0.037},
      {"smiles": "CC(C)C(=O)N1CCc2cccc(NCC(=O)N(CCN(C)C)Cc3ccccc3)c2C1", "note": "[compound 191]", "EC50": 0.059}
    ]}
  ]
}
